According to ChEMBL document CHEMBL1138245, “Discovery of N1-(6-chloroimidazo[2,1-b][1,3]thiazole-5-sulfonyl)tryptamine as a potent, selective, and orally active 5-HT(6) receptor agonist” (J Med Chem, 2007):

Legend:
[1] = target: T1, 5-hydroxytryptamine receptor 6 (Homo sapiens, UniProt P50406); experiment: Displacement of [3H]LSD from human 5HT6 receptor expressed in HeLa cells; format: cell-based
[2] = target: T1, 5-hydroxytryptamine receptor 6; experiment: Agonist activity at human 5HT6 receptor expressed in HeLa cells assessed as cAMP production; format: functional, cell-based
[3] = target: T1, 5-hydroxytryptamine receptor 6; experiment: Antagonist activity at human 5HT6 receptor expressed in HeLa cells assessed as cAMP production; format: functional, cell-based

T1 sequence (P50406 whole entry): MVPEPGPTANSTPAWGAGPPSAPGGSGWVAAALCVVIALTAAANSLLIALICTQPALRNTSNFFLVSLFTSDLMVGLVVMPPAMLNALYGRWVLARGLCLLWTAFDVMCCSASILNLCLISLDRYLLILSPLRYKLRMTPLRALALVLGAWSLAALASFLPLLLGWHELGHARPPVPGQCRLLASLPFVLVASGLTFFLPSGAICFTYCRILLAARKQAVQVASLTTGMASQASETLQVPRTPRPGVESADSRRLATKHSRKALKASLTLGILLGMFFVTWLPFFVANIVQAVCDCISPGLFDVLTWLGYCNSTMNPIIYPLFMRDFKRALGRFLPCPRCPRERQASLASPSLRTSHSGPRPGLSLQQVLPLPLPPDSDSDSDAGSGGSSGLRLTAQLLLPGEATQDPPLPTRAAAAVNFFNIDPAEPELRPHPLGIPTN

| Structure (SMILES) | Ki [1] [nM] | EC50 [2] [nM] | Emax [2] [%] | IC50 [3] [nM] | Imax [3] [%] |
| --- | --- | --- | --- | --- | --- |
| NCCc1cn(S(=O)(=O)c2ccc(N)cc2)c2ccccc12 | 1 | 91 | 73 | – | – |
| CN(C)CCn1cc(S(=O)(=O)c2cccc(F)c2)c2ccccc21 | 10.3 | – | – | – | – |
| NCCc1cn(S(=O)(=O)c2cc(Cl)c(Cl)s2)c2ccccc12 | 31 | – | – | – | – |
| NCCc1cn(S(=O)(=O)c2ccccc2)c2ccccc12 | 10 | 73 | 92 | – | – |
| COc1ccc(S(=O)(=O)n2cc(CCN)c3ccccc32)cc1OC | 7 | – | – | 17.5 | 80.5 |
| NCCc1cn(S(=O)(=O)c2ccccc2Br)c2ccccc12 | 11 | 148 | 97.5 | – | – |
| NCCc1cn(S(=O)(=O)c2ccc(Cl)s2)c2ccccc12 | 6 | 181 | 100 | – | – |
| NCCc1cn(S(=O)(=O)c2cccc(Cl)c2)c2ccccc12 | 6 | 108 | 100 | – | – |
| NCCc1cn(S(=O)(=O)c2ccccc2I)c2ccccc12 | 16 | – | – | – | – |
